Experimental data as given in BindingDB's records for doi:10.1021/acs.jmedchem.8b01394 (Roche Pharma Research and Early Development, 2018).
pEC50, pIC50: −log10 of the molar value.

Assay: Inhibition of RSV Long fusion protein assessed as protection against virus induced cytopathic effect in infected human Hep2 cells after 5 days by CCK8 assay

SMILES | pEC50
Cc1ccc2nc(N3CCS(=O)(=O)c4ccccc4C3)cc(NCCCCN)c2c1 | 8.15
Cc1ccc2nc(N3CCS(=O)(=O)c4ccccc4C3)cc(NCCCCCN)c2c1 | 7.57
CS(=O)(=O)c1ccc2nc(N3CCCc4ccccc4C3)cc(NCCN)c2c1 | 5.25
NCCNc1cc(N2CCS(=O)(=O)c3ccccc3C2)nc2ccccc12 | 7.96
NCCNc1cc(N2CCOc3ccccc3C2)nc2ccccc12 | 6.64
Cc1ccc2nc(N3CCC(F)(F)c4ccccc4C3)cc(NCCN)c2c1 | 7.21
NCC(O)CNc1cc(N2CCc3ccccc3C2)nc2ccccc12 (stereo not drawn) | 6.66
NCC(O)CNc1cc(N2Cc3ccccc3C2)nc2ccccc12 (stereo not drawn) | < 4.00
NCC(O)CNc1cc(N2CCCc3ccccc3C2)nc2ccccc12 (stereo not drawn) | 6.66
OCC(O)CNc1cc(N2CCc3ccccc3C2)nc2ccccc12 (stereo not drawn) | 4.66
CC(O)CNc1cc(N2CCc3ccccc3C2)nc2ccccc12 (stereo not drawn) | < 4.00
NCCNc1cc(N2CCc3ccccc3C2)nc2ccccc12 | 5.64
NCCCCNc1cc(N2CCc3ccccc3C2)nc2ccccc12 | < 4.00
NC(=O)NCCNc1cc(N2CCc3ccccc3C2)nc2ccccc12 | 4.82
NCCNc1cc(N2CCCc3ccccc3C2)nc2ccccc12 | 6.70
NCCNc1cc(N2CCCc3ccccc3C2)nc2cccc(Cl)c12 | 5.18

SMILES | pEC50
NCCNc1cc(N2CCCc3ccccc3C2)nc2cc(Cl)ccc12 | < 5.49
NCCNc1cc(N2CCCc3ccccc3C2)nc2c(Cl)cccc12 | 5.96
Cc1ccc2nc(N3CCCc4ccccc4C3)cc(NCCN)c2c1 | 7.14
NCCNc1cc(N2CCCc3ccccc3C2)nc2ccc(F)cc12 | 5.82
NCCNc1cc(N2CCCc3ccccc3C2)nc2ccc(C(F)(F)F)cc12 | 5.96
Cc1ccc2nc(N3CC(=O)Nc4ccccc4C3)cc(NCCN)c2c1 | 6.51
Cc1ccc2nc(N3CCCc4cc(F)ccc4C3)cc(NCCN)c2c1 | 6.34
Cc1ccc2nc(N3CCCc4ccc(F)cc4C3)cc(NCCN)c2c1 | 7.00
Cc1ccc2nc(N3CCS(=O)(=O)c4ccccc4C3)cc(NCCCN)c2c1 | 9.00
NCCCNc1cc(N2CCc3ccccc3C2)nc2ccccc12 | 5.11
N=C(N)NCCNc1cc(N2CCc3ccccc3C2)nc2ccccc12 | 5.64
NCCNc1cc(N2CCCc3ccccc3C2)nc2ccc(Cl)cc12 | 6.92
COc1ccc2nc(N3CCCc4ccccc4C3)cc(NCCN)c2c1 | 6.49
Cc1ccc2nc(N3CCNc4ccccc4C3)cc(NCCN)c2c1 | 6.64
Cc1ccc2nc(N3CCS(=O)(=O)c4ccccc4C3)cc(NCCN)c2c1 | 8.40

Assay: Inhibition of RSV Long fusion protein assessed as decrease in virus induced syncytium formation in infected human HeLa/M cells

SMILES | pEC50
Cc1ccc(O)c(Cn2c(NC3CCN(CCN)CC3)nc3c(C)cccc32)n1 [JNJ 2408068] | 9.80

Assay: Inhibition of RSV Long fusion protein L138F mutant assessed as protection against virus induced cytopathic effect in infected human Hep2 cells after 5 days by CCK8 assay

SMILES | pIC50
NCCNc1cc(N2CCCc3ccccc3C2)nc2ccccc12 | 5.64
